# Reference: patent publication US12404239B2, “Modulators of BCL6 as ligand directed degraders” (Celgene Corporation, priority 2022, dated 2025)
# Target: T1, BCL6 (Homo sapiens, UniProt P41182)
# T1 construct: HiBiT-tag knocked into endogenous BCL6 locus using CRISPR; endogenous in cells; host or cells: DHL-4_BCL6_HiBiT cells (CRISPR knock-in)
# Experiment: BCL6_HiBiT degradation assay (2 h)
# Type: cell-based
# Conditions: DHL-4_BCL6_HiBiT cells
# Procedure: A DHL-4 cell line with HiBiT-tag knocked into endogenous BCL6 locus using CRISPR was generated. The DHL-4_BCL6_HiBiT cells were dispensed into 384-well plates (Corning no. 3570) that were pre-spotted with compounds. Compounds were dispensed by an acoustic dispenser (ATS acoustic transfer system from EDC Biosystems) into a 384-well plate in a 10-point dose response curve using 3-fold dilutions starting at 1-10 μM and going down to […]. 25 μL of media (RPMI-1640+10% heat inactivated FBS+1×Pen/Strep) containing 2500 of DHL-4 was dispensed per well. Assay plates were incubated at 37° C. with 5% CO2 for 2 hours. After incubation, 25 μL of the Nano-Glo HiBiT lytic detection working solution (Promega, catalogue no. N3040, Madison, WI) was added to each well and incubated at room temperature for 15-30 min, protected from light. After 30 min, luminescence was read on an Envision or PHERAstar luminescence reader. To determine the EC50 value (the half-maximum effective concentration) and the level of the gradation (Yconstant) of a BCL6 degrader, luminescent signal normalized by DMSO control (Y) and compound concentration (x) was fitted using a four-parameter dose-response model (Y=(A+((B−A)/1+((C/x)^D) in Dotmatics. Fitted value C is the degradation EC50 and the minimum value A is the Y constant.
# The degradation of BCL6 at 2 h in DHL-4 results are shown in Table 5, where EC50 is the half maximal effect and Ycon is the % remaining maximal effect.
row,YCon (% remaining maximal effect),Compound
1,^^ (20-60%),"CC1CN(c2ncc(Cl)c(Nc3ccc4c(c3)CC(=O)N4C)n2)CCCC1Nc1ccc2c(C3CCC(=O)NC3=O)nn(C)c2c1 (single isomer, unassigned) [Example 51, 3-(6-((1-(5-chloro-4-((1-methyl-2-oxoindolin-5-yl)amino)pyrimidin-2-yl)-3-methylazepan-4-yl)amino)-1-methyl-1H-indazol-3-yl)piperidine-2,6-dione]"

# Same assay, conditions: DHL-4_BCL6_HiBiT cells, read-out: YCon (% remaining maximal effect)
row,Percent BCL6 remaining at maximal degradation (Ycon) [%],Compound
1,20 to 60,"CN1C(=O)Cc2cc(Nc3nc(NC4CCN(c5ccc6c(C7CCC(=O)NC7=O)nn(C)c6c5)C(=O)C4)ncc3Cl)ccc21 (centres unmarked) [Example 126, 3-(6-(4-((5-chloro-4-((1-methyl-2-oxoindolin-5-yl)amino)pyrimidin-2-yl)amino)-2-oxopiperidin-1-yl)-1-methyl-1H-indazol-3-yl)piperidine-2,6-dione]"
2,> 60,"C[C@@H]1CN(c2ncc(Cl)c(Nc3ccc4c(c3)CC(=O)N4C)n2)C[C@H](C)N1c1ccc2c(C3CCC(=O)NC3=O)nn(C)c2c1 (stereo partly drawn) [Example 26, 3-(6-((2S,6R)-4-(5-chloro-4-((1-methyl-2-oxoindolin-5-yl)amino)pyrimidin-2-yl)-2,6-dimethylpiperazin-1-yl)-1-methyl-1H-indazol-3-yl)piperidine-2,6-dione]"
3,< 20,"C[C@@H]1CN(c2ncc(Cl)c(Nc3ccc4c(c3)CC(=O)N4C)n2)CC[C@@H]1Nc1ccc2c(C3CCC(=O)NC3=O)nn(C)c2c1 (stereo partly drawn) [Example 12, 3-(6-{[(3R,4S)-1-{5-chloro-4-[(1-methyl-2-oxo-2,3-dihydro-1H-indol-5-yl)amino]pyrimidin-2-yl}-3-methylpiperidin-4-yl]amino}-1-methyl-1H-indazol-3-yl)piperidine-2,6-dione]"
4,< 20,"C[C@@H]1CN(c2ncc(Cl)c(Nc3ccc4c(c3)C(F)(F)C(=O)N4C)n2)CC[C@H]1Nc1ccc2c(C3CCC(=O)NC3=O)nn(C)c2c1 (stereo partly drawn) [Example 56, 3-(6-(((3R,4R)-1-(5-chloro-4-((3,3-difluoro-1-methyl-2-oxoindolin-5-yl)amino)pyrimidin-2-yl)-3-methylpiperidin-4-yl)amino)-1-methyl-1H-indazol-3-yl)piperidine-2,6-dione]"
5,20 to 60,"C[C@@H]1CN(c2ncc(Cl)c(Nc3ccc4c(c3)CC(=O)N4C)n2)C[C@@H](C)N1c1ccc2c(C3CCC(=O)NC3=O)nn(C)c2c1 (stereo partly drawn) [Example 78, 3-(6-((2R,6R)-4-(5-chloro-4-((1-methyl-2-oxoindolin-5-yl)amino)pyrimidin-2-yl)-2,6-dimethylpiperazin-1-yl)-1-methyl-1H-indazol-3-yl)piperidine-2,6-dione]"
6,> 60,"Cn1nc(C2CCC(=O)NC2=O)c2ccc(NC3CCN(c4ncc(Cl)c(Nc5ccc6c(c5)CC(=O)N6)n4)CC3)cc21 (centres unmarked) [Example 63, 3-(6-((1-(5-chloro-4-((2-oxoindolin-5-yl)amino)pyrimidin-2-yl)piperidin-4-yl)amino)-1-methyl-1H-indazol-3-yl)piperidine-2,6-dione]"
7,> 60,"CC1CN(c2ncc(Cl)c(Nc3ccc4c(c3)CC(=O)N4C)n2)CC(=O)N1c1ccc2c(C3CCC(=O)NC3=O)nn(C)c2c1 (centres unmarked) [Example 5, 3-(6-(4-(5-chloro-4-((1-methyl-2-oxoindolin-5-yl)amino)pyrimidin-2-yl)-2-methyl-6-oxopiperazin-1-yl)-1-methyl-1H-indazol-3-yl)piperidine-2,6-dione]"
8,< 20,"C[C@H]1CN(c2ccc3c(C4CCC(=O)NC4=O)nn(C)c3c2)C[C@H](C)N1c1ncc(Cl)c(Nc2ccc3c(c2)CC(=O)N3C)n1 (stereo partly drawn) [Example 29, 3-(6-((3S,5S)-4-(5-chloro-4-((1-methyl-2-oxoindolin-5-yl)amino)pyrimidin-2-yl)-3,5-dimethylpiperazin-1-yl)-1-methyl-1H-indazol-3-yl)piperidine-2,6-dione]"
9,< 20,"C[C@@H]1CN(c2ncc(Cl)c(Nc3ccc4c(c3)CC(=O)N4CCC(C)(C)F)n2)CC[C@H]1Nc1ccc2c([C@H]3CCC(=O)NC3=O)nn(C)c2c1 (single isomer, unassigned) [Example 108]"
10,> 60,"CN1C(=O)Cc2cc(Nc3nc(N4CCC(Nc5ccc6c(N7CCC(=O)NC7=O)nn(C)c6c5)CC4)ncc3Cl)ccc21 [Example 135, 1-(6-((1-(5-chloro-4-((1-methyl-2-oxoindolin-5-yl)amino)pyrimidin-2-yl)piperidin-4-yl)amino)-1-methyl-1H-indazol-3-yl)dihydropyrimidine-2,4(1H,3H)-dione]"
11,> 60,"CC1C(=O)N(c2ccc3c(C4CCC(=O)NC4=O)nn(C)c3c2)CCN1c1ncc(Cl)c(Nc2ccc3c(c2)CC(=O)N3C)n1 (centres unmarked) [Example 38, 3-(6-(4-(5-chloro-4-((1-methyl-2-oxoindolin-5-yl)amino)pyrimidin-2-yl)-3-methyl-2-oxopiperazin-1-yl)-1-methyl-1H-indazol-3-yl)piperidine-2,6-dione]"
12,> 60,"C[C@H]1C[C@H](N(C)c2ccc3c([C@@H]4CCC(=O)NC4=O)nn(C)c3c2)CCN1c1ncc(Cl)c(Nc2ccc3c(c2)CC(=O)N3C)n1 (single isomer, unassigned) [Example 88]"
13,< 20,"COCCN1C(=O)Cc2cc(Nc3nc(N4CC[C@@H](Nc5ccc6c([C@H]7CCC(=O)NC7=O)nn(C)c6c5)[C@H](C)C4)ncc3Cl)ccc21 (single isomer, unassigned) [Example 76]"
14,> 60,"C[C@H]1CN(c2ncc(Cl)c(Nc3ccc4c(c3)CC(=O)N4C)n2)CC[C@@H]1Nc1ccc2c(C3CCC(=O)NC3=O)nn(C)c2c1 (stereo partly drawn) [Example 14, 3-(6-(((3S,4S)-1-(5-chloro-4-((1-methyl-2-oxoindolin-5-yl)amino)pyrimidin-2-yl)-3-methylpiperidin-4-yl)amino)-1-methyl-1H-indazol-3-yl)piperidine-2,6-dione]"
15,> 60,"CN1C(=O)Cc2cc(Nc3nc(N4CCC(Nc5ccc6c(N7CCC(=O)NC7=O)nn(C)c6c5)C(F)(F)C4)ncc3Cl)ccc21 (centres unmarked) [Example 65, 1-(6-((1-(5-chloro-4-((1-methyl-2-oxoindolin-5-yl)amino)pyrimidin-2-yl)-3,3-difluoropiperidin-4-yl)amino)-1-methyl-1H-indazol-3-yl)dihydropyrimidine-2,4(1H,3H)-dione]"
16,< 20,"C[C@@H]1CN(c2ncc(Cl)c(Nc3ccc4c(c3F)CC(=O)N4C)n2)CC[C@H]1Nc1ccc2c([C@@H]3CCC(=O)NC3=O)nn(C)c2c1 (single isomer, unassigned) [Example 100]"
17,20 to 60,"C[C@@H]1CN(c2ncc(Cl)c(Nc3ccc4c(c3)CC(=O)N4C)n2)C[C@@H](C)N1c1ccc2c([C@H]3CCC(=O)NC3=O)nn(C)c2c1 (single isomer, unassigned) [Example 79]"
18,< 20,"C[C@@H]1CN(c2ncc(Cl)c(Nc3ccc4c(c3)CC(=O)N4C)n2)CC[C@H]1Nc1ccc2c(C3CCC(=O)NC3=O)nn(C)c2c1 (stereo partly drawn) [Example 70, 3-(6-(((3R,4R)-1-(5-chloro-4-((1-methyl-2-oxoindolin-5-yl)amino)pyrimidin-2-yl)-3-methylpiperidin-4-yl)amino)-1-methyl-1H-indazol-3-yl)piperidine-2,6-dione]"
19,20 to 60,"Cn1nc(C2CCC(=O)NC2=O)c2ccc(NC3CCN(c4ncc(Cl)c(Nc5ccc6c(c5)CC(=O)N6CCO)n4)CC3)cc21 (centres unmarked) [Example 41, 3-[6-[[1-[5-chloro-4-[[1-(2-hydroxyethyl)-2-oxo-indolin-5-yl]amino]pyrimidin-2-yl]-4-piperidyl]amino]-1-methyl-indazol-3-yl]piperidine-2,6-dione]"
20,> 60,"CN1C(=O)Cc2cc(Nc3nc(N4CCC(N(C)c5ccc6c(C7CCC(=O)NC7=O)nn(C)c6c5)CC4)ncc3Cl)ccc21 (centres unmarked) [Example 7, 3-(6-((1-(5-chloro-4-((1-methyl-2-oxoindolin-5-yl)amino)pyrimidin-2-yl)piperidin-4-yl)(methyl)amino)-1-methyl-1H-indazol-3-yl)piperidine-2,6-dione]"
21,< 20,"C[C@@H]1CN(c2ncc(Cl)c(Nc3ccc4c(c3)CC(=O)N4C)n2)CC[C@H]1Nc1cc2c(cn1)c(C1CCC(=O)NC1=O)nn2C (stereo partly drawn) [Example 86, 3-(6-(((3R,4R)-1-(5-chloro-4-((1-methyl-2-oxoindolin-5-yl)amino)pyrimidin-2-yl)-3-methylpiperidin-4-yl)amino)-1-methyl-1H-pyrazolo[4,3-c]pyridin-3-yl)piperidine-2,6-dione]"
22,< 20,"C[C@H]1C[C@H](Nc2ccc3c([C@H]4CCC(=O)NC4=O)nn(C)c3c2)CCN1c1ncc(Cl)c(Nc2ccc3c(c2)CC(=O)N3C)n1 (single isomer, unassigned) [Example 82]"
